“Also recorded” adds a separate entry of the source. Read-outs that look alike come from different tables or passages of the source.
Assays:
[1] = in vivo
Source text: (§1) On the surface, reduction of alpha-secretase cleavage could be considered an undesirable effect as alpha-secretase cleaves multiple other substrates. Thus, one could hypothesize that reduction of alpha-secretase might cause toxicity. However, ST101 has been proven safe in rodent and monkey toxicity studies of up to 6 months at doses up to approximately 100-fold higher than the ones used in the 3xTg-AD mice. […] This may be due to an incomplete effect of ST101 on alpha-secretases or due to activity of other alpha-secretases compensating for a major effect of ST101 on ADAM10.

[2] = system: ADAM17 (TACE); assay: Western blot of TACE in brain extracts of 3xTg-AD mice; format: in vivo, mouse; conditions: 14.5-month-old 3xTg-AD mice, 2 months of treatment, 5 mg/kg/day in drinking water
Description: In addition to ADAM10, ADAM17 (TACE, which is Tumor Necrosis Factor converting enzyme) is known to act as an alpha-secretase of APP. Thus, it was tested in a Western blot whether ST101 reduces levels of ADAM17 (TACE).
(§2) The Western blot was obtained using a TACE specific antibody in brain extracts from ST101 treated 3xTG-AD mice (S) versus control mice (C). Animals were approximately 14.5 months old at sacrifice after 2 months of treatment with ST101 at 5 mg/kg/day in drinking water.

[3] = cited from earlier work
[4] = system: Aβ1-40; assay: Aβ in brain tissue from cynomolgus monkeys; format: in vivo; conditions: juvenile cynomolgus monkeys, 10 mg/kg/day by naso-gastric tube, 6 months
Description: (§3) Brain samples from cynomolgus monkeys were obtained at the conclusion of a six-month chronic toxicity study. The cynomolgus monkeys used in this study were juveniles of less than 4 years of age. ST101 was administered daily for 6 months by naso-gastric tube at 10 mg/kg/day (n=8 per group). Data was generated from 8 treated and 8 control animals. Levels of Aβ1-40 are shown in FIG. 9, which is a bar graph that depicts the effect of ST 101 on Aβ in brain tissue from cynomolgus monkeys. FIG. 9 depicts the amount of levels of Aβ1-40 in monkeys treated with ST 101, relative to control monkeys.

[5] = system: sAPP-beta; assay: Western blot of sAPP-beta in brain extracts of 3xTg-AD mice; format: in vivo, mouse; conditions: 14.5-month-old 3xTg-AD mice, 2 months of treatment, 5 mg/kg/day in drinking water
Description: as §2, with “FIG. 10B describes a reduction of fragment C99. C99 is created by BACE cleavage which leads to release of soluble APP, specifically sAPP-beta. […] The” for “The”, “an sAPP-beta” for “a TACE”

[6] = system: ADAM10; assay: Western blot of ADAM10 in brain extracts of 3xTg-AD mice; format: in vivo, mouse; conditions: 12-month-old 3xTg-AD mice, 5 mg/kg/day, 2 months
Description: (§4) APP C-terminal fragments C99 and C83 are created by beta-secretase and alpha-secretase cleavage respectively. The reduction of both C99 and C83 induced by ST101 could therefore be due to reduction or inhibition of secretases. This hypothesis was tested using Western blots of brain extracts from 3xTg-AD mice from the initial experiment in 12-month-old animals treated with ST101 for 2 months. The only beta-secretase is BACE1 and the constitutive alpha-secretase is ADAM10.
(§5) Western blots were probed with antibodies against BACE1 and ADAM10. FIG. 11A is a series of Western blots depicting levels of proADAM10, ADAM10, proBACE, BACE, Presenilin1 and APP-CFTs in brain extracts from ST101 treated 3xTG-AD mice (S) versus control mice (C). C: control brain extract. S: ST101-treated brain extract. Animals were approximately 12 months old at sacrifice after 2 months of treatment with ST101 at 5 mg/kg/day.
(§6) FIG. 11B depicts quantification of the Western blot bands from FIG. 11A by densitometry.

[7] = system: tau; assay: Western blot of tau and phosphorylated tau in brain extracts of 3xTg-AD mice; format: in vivo, mouse; conditions: overexposed blot, 12-month-old 3xTg-AD mice, 5 mg/kg/day, 2 months
Source text: The status of tau phosphorylation, accumulation and degradation can be assessed in Western blots. Two anti-tau antibodies, directed against non-phosphorylated and phosphorylated tau, were used to probe brain extracts from the initial experiment. FIG. 12 is a series of Western blots depicting levels of full-length tau, tau accumulates, tau degradation products and phosphorylated tau levels in brain extracts from ST101 treated 3xTG-AD mice (S) versus control mice (C). Beta actin levels (Ac) were used as a loading control. P-tau, two panels per antibody: top—normal exposure; bottom—overexposure to visualize minor protein bands. Ac: beta actin antibody as protein loading control. Animals were approximately 12 months old at sacrifice after 2 months of treatment with ST101 at 5 mg/kg/day.

[8] = system: APP; assay: Western blot of APP and APP C-terminal fragments in brain extracts of 3xTg-AD mice; format: in vivo, mouse; conditions: 5 mg/kg/day
Description: To attempt to determine at what part in the Aβ processing/release pathway ST101 may be active, a series of Western blot analyses of brain extracts from the same mice were conducted. These Westerns blots examined intact APP as well as products of its post-translational processing and subsequent degradation.
FIG. 4 is a Western blot that depicts APP C-terminal fragments detected by antibody CT20 in the brains of ST101-treated (S) 3xTg-AD mice, relative to untreated (C) 3xTg mice-AD.
FIG. 5 is a Western blot that depicts APP and degradation fragments detected by antibody CT20 in the brains of ST101-treated (S) 3xTg-AD mice, relative to untreated (C) 3xTg-AD mice. “CT20” stands for full length APP species, and “Actin” stands for anti-beta-actin antibody as a protein loading control.
FIGS. 10A and 10B are Western blots that depict APP carboxy-terminal fragments detected by antibody CT20 in the brains of ST101-treated (T in FIG. 10A, S in FIG. 10B) 3xTg-AD mice, relative to untreated (C) 3xTg-AD mice. FIG. 10B is from a separate experiment that used the same brain extract used in the experiment for FIG. 10A. Animals were approximately 14.5 months old at sacrifice after 2.5 months of treatment with ST101 at 5 mg/kg/day in drinking water. * denotes a control animal with low levels of CTFs.
FIGS. 10C and 10D are Western blots that depict APP carboxy-terminal fragments detected by an APP C-terminal antibody (Eptitomics #: 15654-1) in the brains of ST101-treated (S) 3xTg-AD mice, relative to untreated (C) 3xTg-AD mice. FIG. 10D is a lighter exposure of the Western blot in FIG. 10C. Animals were approximately 14.5 months old at sacrifice after 2.5 months of treatment with ST101 at 5 mg/kg/day in drinking water.

[9] = cited from earlier work; remark: listed apart in the source
[10] = system: 3xTg-AD mice; assay: Morris water maze in 3xTg-AD mice; format: in vivo, mouse; conditions: 2 months
Description: 3xTg-AD mice of approximately one year of age were treated for 2 months with ST101. An average dose of 5 mg/kg/day was administered in drinking water (calculated dose, based on mean water consumption). Behavioral effects were tested by assessing performance on the Morris Water Maze. Biochemical effects were examined by measuring brain content of Aβ and APP by ELISA and Western Blot.
Behavioral Effects: Performance of 3xTg-AD Mice in the Morris Water Maze (MWM), adapted from Roozendaal et al., Proc. Natl. Acad. Sci. U.S.A. 100: 1328-1333 (2003).
The MWM tests both spatial memory (i.e. hippocampus dependent) and cued learning (i.e. non-hippocampal) in rodents. The maze is a circular tank filled with opaque water. Mice are placed in the water and must swim to find and escape onto a platform submerged 1.5 cm beneath the surface of the water. The time (in seconds) required to find the platform is recorded. Animals rely on visual cues in the room containing the tank in order to find the platform on successive challenges. Training was conducted daily for seven consecutive days.
Retention of training was assessed twice, 24 and 72 hours after the final training trial. Animals were subjected to a 60-second free swim in the tank with the platform removed. Parameters measured included (1) latency: time required to reach the former platform location and (2) crosses: the number of times the animal swam across the former platform location.

[11] = Monkey toxicity studies; format: in vivo; conditions: up to 6 months, doses up to approximately 100-fold higher than in 3xTg-AD mice
Description: as §3, §1

[12] = system: Presenilin 1; assay: Western blot of Presenilin 1 in brain extracts of 3xTg-AD mice; format: in vivo, mouse; conditions: 12-month-old 3xTg-AD mice, 5 mg/kg/day, 2 months
Description: as §5, §6

[13] = system: BACE1; assay: Western blot of BACE in brain extracts of 3xTg-AD mice; format: in vivo, mouse; conditions: 12-month-old 3xTg-AD mice, 5 mg/kg/day, 2 months
Description: as §4, §5, §6

[14] = system: Neuro2a cells; assay: Aβ production by Neuro2a cultured cells, ELISA of culture medium; format: cell-based, murine; conditions: 24 hours of treatment, vs control
Description: Neuro2a is a murine neuroblastoma cell line that is known to produce amyloid peptides Aβ1-40 and Aβ1-42 in amounts measurable by ELISA assays. These forms of Aβ have been correlated with the pathology in AD brain and Aβ1-42 in particular is postulated to have the ability to block α7 nicotinic receptors and to produce direct neurotoxic effects. Neuro2a cells were treated for 24 hours with ST101 added to the tissue culture medium. Tissue culture medium was collected and analyzed by ELISA for the presence of Aβ.
FIGS. 1A and 1B are bar graphs that depict the effect of the compound ST101 on Aβ production by Neuro2a cells. FIG. 1A is a bar graph that depicts the Aβ concentration in the cell culture medium as a function of ST101 concentration compared to control. FIG. 1B a bar graph that depicts the ratio of Aβ1-42 to Aβ1-40 as a function of ST101 concentration compared to control.

[15] = system: SAMP8 mouse; conditions: cited from earlier work
[16] = system: tau; assay: Tau immunohistochemistry with H7 anti-tau antibody in 3xTg-AD mice; format: in vivo, mouse
Source text: The 3xTg-AD mouse model incorporates both pathological hallmarks of Alzheimer's disease: Aβ amyloid plaques and neurofibrillary tangles. Neurofibrillary tangles consist of accumulates of abnormally phosphorylated tau protein. In the 3xTg-AD mice pathological somato-dendritic accumulation of tau can be seen in immunohistochemistry as part of the disease model phenotype.
ST101 effects on tau distribution and accumulation were explored in immunohistochemistry with H7 anti-tau antibody.

[17] = 14.5-month-old 3xTg-AD mice, 2.5 months
[18] = antibody CT20, 12-month-old 3xTg-AD mice, 2 months
[19] = 24 and 72 hours after final training, 5 mg/kg/day

O=C1N=C2C=CC=CN2C12Cc1ccccc1C2 [ST101, spiro(imidazo(1,2-a)pyridin-2(3H)-one-3,2′-indan)]
safety in toxicity studies [1]: proven safe | TACE level [2]: reduction of TACE levels in the majority of ST101 treated animals | extracellular ACh concentrations ([3]; cerebral cortex): increases | extracellular concentrations of both ACh and dopamine ([3]; hippocampus): increases | nicotine-stimulated release of acetylcholine (ACh) ([3]; in vivo): potentiates | Aβ1-40 in brain [4]: reduction of Aβ1-40 in animals treated with ST101 that did not reach statistical significance | sAPP-beta level [5]: concomitant reduction | ADAM-10 protein level [6]: not significantly affected | pro-ADAM10 protein level [6]: profound reduction | accumulated tau and degradation products ([7]; H7 antibody): disappearance of accumulated tau and degradation products | phosphorylated tau degradation product ([7]; R-p-tau antibody): appearance of a new phosphorylated tau degradation product | 17 kDa fragment [8, 17]: lack of detection | C99 fragment [8, 17]: much more pronounced; also recorded: reduction | C83 fragment ([8]; 14.5-month-old 3xTg-AD mice, 2.5 months, compared with 12-month-old mice): not reduced to the same degree | C83 C-terminal APP fragment [8, 18]: substantial decrease | C99 C-terminal APP fragment [8, 18]: substantial decrease | major APP degradation intermediate (~50 kDa) [8, 18]: disappearance or significant reduction | molecular weight of full-length APP species [8, 18]: slightly lowered molecular weight of some full-length species | novel C-terminal APP fragment of about 17 kDa [8, 18]: appearance | APP CTFs ([8]; antibody CT20, 14.5-month-old 3xTg-AD mice, 2.5 months): significant effect of reduction | memory deficits induced by chemical amnesic agents ([9]; methamphetamine, MK-801, scopolamine): attenuates | age-impaired memory ([9]; rodent models): significantly improves | latency on successive days of the training ([10]; 3xTg-AD mice approx. one year old, 5 mg/kg/day in drinking water, vs control): greater reductions in latency | learning and memory performance ([10]; 3xTg-AD mouse strain, 5 mg/kg/day): improves learning and memory performance | crosses during retention testing [10, 19]: increases in crosses | latency during retention testing [10, 19]: reductions in latency | safety in toxicity studies [11]: proven safe | Presenilin 1 level [12]: did not show significant changes | BACE protein level [13]: profound reduction | Pro-BACE protein level [13]: not significantly affected | Aβ1-40 in cell culture medium [14]: without major effects | Aβ1-42 in cell culture medium [14]: significantly reduced | accumulation of Aβ-like deposits in brain tissue [15]: decreased accumulation | learning and memory functions [15]: improvement | neuronal loss, Hematoxylin/Eosin stained control sections [16]: no neuronal loss | pathological somato-dendritic tau staining ([16]; hippocampus, H7 anti-tau antibody): clear reduction

Source: US20100267763A1, “Method of Decreasing Pro-ADAM10 Secretase and/or Beta Secretase Levels” (priority 2009, published 2010)
